Drawing on DBAASP, this text covers MIC for five compounds.

Holding throughout (experiment): ≥ marks a high value that may be exact or a test limit, other limits are often not marked, values filed in µg/mL are converted to µM
Test [1] relates to Candida albicans ATCC 36232.
Test [2] has as its system Klebsiella pneumoniae ATCC 10031.
Test [3] concerns Micrococcus luteus ATCC 4698.
Test [4] relates to Shigella dysenteriae ATCC 9752.
In test [5] the test system is Staphylococcus epidermidis ATCC 12228.
Test [6] has as its system Bacillus subtilis ATCC 6633.
Test [7] relates to Escherichia coli KCTC 2433.
The subject of test [8] is Proteus mirabilis ATCC 25933.
Test [9] deals with Staphylococcus aureus KCTC 3881.
For test [10], the system named is Pseudomonas aeruginosa ATCC 9027.
The subject of test [11] is Pseudomonas aeruginosa.
For test [12], the system named is Staphylococcus aureus.
Test [13] has as its system Bacillus subtilis.
The test system of test [14] is Escherichia coli.
Test [15] relates to Acinetobacter sp.
Test [16] has as its system Pseudomonas aeruginosa ATCC 27853.
The subject of test [17] is Citrobacter sp.
In test [18] the test system is Klebsiella pneumoniae.
In test [19] the test system is Escherichia coli ATCC 25922.
The subject of test [20] is Pseudomonas sp.
The test system of test [21] is Staphylococcus aureus ATCC 25923.
Test [22] deals with Candida parapsilosis ATCC 22019.
The subject of test [23] is Klebsiella aerogenes LMG 02094.
Test [24] concerns Staphylococcus aureus USA 100.
Test [25] relates to Pseudomonas aeruginosa PAO1 H103.
For test [26], the system named is Klebsiella pneumoniae LMG 20218.
Test [27] deals with Acinetobacter baumannii LMG 01041.
Test [28] has as its system Staphylococcus aureus USA 300.
The test system of test [29] is Trichosporon beigelii KCTC 7707.
The test system of test [30] is Pseudomonas aeruginosa LMG 6395.
Test [31] relates to Enterococcus faecalis ATCC 29212.
Test [32] relates to Salmonella enterica serovar Typhimurium.
For test [33], the system named is Escherichia coli UB1005.
Test [34] deals with Escherichia coli LMG 15862.
Test [35] relates to Staphylococcus epidermidis.
Test [36] deals with Pseudomonas aeruginosa H103.
In test [37] the test system is Candida albicans.
For test [38], the system named is Staphylococcus aureus ATCC 29213.
Test [39] has as its system Mycobacterium tuberculosis H37Rv.
Test [40] concerns Malassezia furfur KCTC 7744.
Test [41] relates to Bacillus subtilis KCCM 11495.
Test [42] relates to Escherichia coli KCCM 11569.
Test [43] deals with Saccharomyces cerevisiae AS2.430.

Values after ≈ are worked out from the molar mass of the structure shown.

`CC[C@H](C)[C@H](NC(=O)[C@H](CC(C)C)NC(=O)[C@@H](N)Cc1ccccc1)C(=O)NCC(=O)N[C@@H](CCSC)C(=O)N[C@H](C(=O)N[C@@H](Cc1cnc[nH]1)C(=O)NCC(=O)N[C@@H](CC(C)C)C(=O)N[C@H](C(=O)N[C@H]1CSSC[C@@H](C(=O)O)NC(=O)[C@H](CCCCN)NC(=O)[C@H](CCCN=C(N)N)NC(=O)[C@H](CO)NC(=O)[C@H]([C@@H](C)CC)NC(=O)[C@H](CC(C)C)NC1=O)[C@@H](C)CC)[C@@H](C)O` [FLIGMTHGLICLISRKC]: the MIC (as a rule, the least concentration at which growth counts as inhibited) in test [1] is no less than 52.5 µM; in test [2] it was no less than 52.5 µM; in test [3], 6.56 µM (≈ 12.5 µg/mL); in [4] it was no less than 52.5 µM; in test [5], 31.5 µM (≈ 59.9 µg/mL); in test [6], 26.2 µM (≈ 49.9 µg/mL). Besides, the MIC was no less than 52.5 µM in [7], no less than 52.5 µM in test [8], 13.1 µM (≈ 25 µg/mL) in test [9] and greater than 52.5 µM in test [10].

Take `CC[C@H](C)[C@H](NC(=O)[C@H](CC(C)C)NC(=O)[C@H](CCCN=C(N)N)NC(=O)[C@H](CC(C)C)NC(=O)[C@H](CCCCN)NC(=O)CN)C(=O)N[C@@H](CCCCN)C(=O)N[C@@H](CCCCN)C(=O)N[C@@H](CC(C)C)C(=O)N[C@@H](Cc1c[nH]c2ccccc12)C(=O)N[C@H](C(=O)N[C@@H](CCCCN)C(=O)N[C@@H](CCCCN)C(=O)N[C@@H](Cc1c[nH]c2ccccc12)C(=O)N[C@@H](CCCCN)C(=O)N[C@@H](CCCCN)C(=O)N[C@@H](CCCCN)C(=O)NCC(=O)N[C@@H](Cc1c[nH]c2ccccc12)C(=O)N[C@@H](CCCCN)C(=O)N[C@@H](C)C(N)=O)C(C)C` [GKLRLIKKLWVKKWKKKGWKA]: the minimal inhibitory concentration (MIC) in test [11] came out at 2 µM (≈ 5.24 µg/mL); in test [12], 4 µM (≈ 10.5 µg/mL); in test [13], 2 µM (≈ 5.24 µg/mL); in test [14] it was 2 µM (≈ 5.24 µg/mL); in test [15], 2 µM (≈ 5.24 µg/mL); in test [16], 2 µM (≈ 5.24 µg/mL). The MIC in [17] was found to be 2 µM (≈ 5.24 µg/mL); in [18] it was 2.83 µM (≈ 7.42 µg/mL); in [19] it was 2 µM (≈ 5.24 µg/mL); in test [20], 2 µM (≈ 5.24 µg/mL); in [21], 2 µM (≈ 5.24 µg/mL).

Turning to `CC[C@H](C)[C@H](NC(=O)[C@@H](NC(=O)[C@H](Cc1c[nH]c2ccccc12)NC(=O)[C@@H](NC(=O)[C@@H](N)CCCN=C(N)N)[C@@H](C)CC)C(C)C)C(=O)N[C@@H](Cc1c[nH]c2ccccc12)C(=O)N[C@@H](CCCN=C(N)N)C(=O)N[C@@H](CCCN=C(N)N)C(N)=O` [RIWVIWRR], the MIC in [22] was determined as 12.5 µM (≈ 14.8 µg/mL); in [23], 5 µM (≈ 5.92 µg/mL); in test [24], 6.25 µM (≈ 7.4 µg/mL); in test [25], 3.38 µM (≈ 4 µg/mL); in [26], 6 µM (≈ 7.1 µg/mL); in test [27] it was 2 µM (≈ 2.37 µg/mL). The MIC in test [28] turned out to be 6.25 µM (≈ 7.4 µg/mL); in test [29] it was 12.5 µM (≈ 14.8 µg/mL); in test [30] it was 3 µM (≈ 3.55 µg/mL); in test [31], 1.69 µM (≈ 2 µg/mL); in [32], 6.75 µM (≈ 7.99 µg/mL); in test [33], 1.69 µM (≈ 2 µg/mL). In addition, the minimal inhibitory concentration (MIC) in test [34] is 3 µM (≈ 3.55 µg/mL); in [19] it was 3.38 µM (≈ 4 µg/mL); in test [35], 1.69 µM (≈ 2 µg/mL); in test [36], 6.75 µM (≈ 7.99 µg/mL); in test [37] it was 6.75 µM (≈ 7.99 µg/mL); in test [38] it was 6.75 µM (≈ 7.99 µg/mL). Moreover, the MIC came to 1.69 µM (≈ 2 µg/mL) in test [21], 2.2 µM (≈ 2.6 µg/mL) in test [39], 25 µM (≈ 29.6 µg/mL) in test [40] and 12.5 µM (≈ 14.8 µg/mL) in test [10].

Turning to `CC(C)C[C@H](NC(=O)CNC(=O)[C@H](Cc1cnc[nH]1)NC(=O)[C@H](Cc1cnc[nH]1)NC(=O)[C@H](CC(C)C)NC(=O)[C@H](CC(C)C)NC(=O)[C@H](C)NC(=O)[C@H](CC(N)=O)NC(=O)[C@H](CC(C)C)NC(=O)[C@@H](N)Cc1c[nH]c2ccccc12)C(=O)N[C@@H](CC(N)=O)C(=O)N[C@@H](CS)C(=O)N[C@@H](C)C(=O)N[C@@H](CCCCN)C(=O)NCC(=O)N[C@H](C(N)=O)C(C)C` [WLNALLHHGLNCAKGV], the MIC in test [41] stood at 6.48 µM (≈ 11.3 µg/mL); in test [42] it was 25.9 µM (≈ 45.2 µg/mL).

As for `CC(C)C[C@H](NC(=O)[C@H](CO)NC(=O)CNC(=O)[C@H](CCC(=O)O)NC(=O)[C@H](CC(C)C)NC(=O)[C@H](CCC(=O)O)NC(=O)[C@H](C)NC(=O)[C@H](CCC(N)=O)NC(=O)[C@H](CO)NC(=O)[C@H](CCC(=O)O)NC(=O)[C@H](CCC(=O)O)NC(=O)[C@@H](N)Cc1ccc(O)cc1)C(=O)N[C@@H](CCCCN)C(=O)O` [YEESQAELEGSLK], the results for the MIC in test [19], in [43] and in [21] were 211 µM (≈ 313 µg/mL), no less than 6750 µM and 211 µM (≈ 313 µg/mL), respectively.
